{
  "source": "patent US6743917B2",
  "about": "“Camptothecin analogs and methods of preparation thereof” (University of Pittsburgh, priority 1993, dated 2004)",
  "key": {"[1]": {"system": "HL-60 (human promyelocytic leukemic) cells", "assay": "Cytotoxicity assay, HL-60 cells (XTT-microculture tetrazolium assay)", "format": "cell-based", "conditions": "Homo sapiens; HL-60 cells, 72 hr incubation, XTT; read-out: Inhibition of cancer cell growth IC50, HL-60", "experimental": "The camptothecin derivatives were evaluated for their cytotoxic effects on the growth of HL-60 (human promyelocytic leukemic), 833K (human teratocarcinoma) and DC-3F (hamster lung) cells in vitro. The cells were cultured in an initial density of […]. They were maintained in a 5% CO2 humidified atmosphere at 37° C. in RPMI-1640 media (GIBCO-BRL Grand Island, N.Y.) containing penicillin 100 μ/ml)/streptomycin (100 ^μg/ml) (GIBCO-BRL) and 10% heat inactivated fetal bovine serum. The assay was performed in duplicate in 96-well microplates. The cytotoxicity of the compounds toward HL-60 cells following 72 hr incubation was determined by XTT-microculture tetrazolium assay. Scudiero, D. A., et al., Cancer Res., 48, 4827 (1988), the disclosure of which is incorporated herein by reference. 2′, 3′-bis(-methoxy-4-nitro-5-sulfheny)-5-[(phenylamino)carbonyl]-2H-tetrazolium hydroxide (XTT) was prepared at 1 mg/ml in prewarmed (37° C.) medium without serum. Phenazine methosulfate (PMS) and fresh XTT were mixed together to obtain 0.075 mM PMS-XTT solution (25 ^μl of the stock 5 mM PMS was added per 5 ml of 1 mg/ml XTT). Fifty ^μl of this mixture was added to each well of the cell culture at the end of 72 hr incubation. After incubation at 37° C. for 4 hr., absorbance at 450 nm and 630 nm was measured with a microplate reader (EL340, Bio-Tek Instruments, Inc., Winooski, Vt.)."}, "[2]": {"assay": "in vitro", "conditions": "human"}, "[3]": {"assay": "Kinetics of lactone ring opening in RBC (HPLC)", "format": "in vitro ADME, human", "text": "Kinetics of Lactone Ring Opening. […] Mi and Burke (1994), supra. […] Louis, Mo.) was used."}, "[4]": {"system": "DC-3F (hamster lung) cells", "assay": "Cytotoxicity assay, DC-3F cells (sulforhodamine B protein content)", "format": "cell-based", "conditions": "Mesocricetus auratus, DC3F; DC-3F cells, sulforhodamine B; read-out: Inhibition of cancer cell growth IC50, DC-3F", "experimental": "(§1) Cultures were fixed with trichloroacetic acid and then stained for 30 minutes with 0.4% sulforhodamine B dissolved in 1% acetic acid. Unbound dye was removed by acetic acid washes, and the protein-bound dye was extracted with an unbuffered Tris base [tris(hydroxy-methyl)aminomethan] for determination of absorbance at 570 nm in a 96-well microplate reader. The experiments were carried out in duplicate using five to six concentrations of the drugs tested. Data were analyzed via computer software."}, "[5]": {"conditions": "human; for t1/2: blood"}, "[6]": {"assay": "Kinetics of lactone ring opening in PBS buffer (HPLC)", "format": "physicochemical", "conditions": "for % Lactone at Equilibrium: PBS; for half-life: pH 7.4", "experimental": "Kinetics of Lactone Ring Opening. […] Mi and Burke (1994), supra.\nFIG. 21 summarizes the stability of DB172 in phosphate buffered saline (PBS) buffer, pH 7.4, at physiological temperature. Shown in the figure are plots of lactone fraction as a function of time for DB172 at different concentrations. Drug was added to solution from a concentrated DMSO stock solution such that the volumes of DMSO were very small (less than 0.5%) relative to the volume of water. […] At the more dilute drug concentrations the drug hydrolyzes as previously observed for other camptothecins containing the ^α-hydroxy-^δ-lactone moiety."}, "[7]": {"system": "833K (human teratocarcinoma) cells", "assay": "Cytotoxicity assay, 833K cells (sulforhodamine B protein content)", "format": "cell-based", "conditions": "Homo sapiens; 833K cells, sulforhodamine B; read-out: Inhibition of cancer cell growth IC50, 833K", "experimental": "as §1"}, "[8]": {"assay": "Equilibrium binding to DMPC small unilamellar vesicles (fluorescence anisotropy titration)", "conditions": "for KDMPC overall association constant: PBS buffer at PH 7.4 and 37° C."}, "[9]": {"assay": "Equilibrium binding to DMPG small unilamellar vesicles (fluorescence anisotropy titration)", "conditions": "PBS buffer at PH 7.4 and 37° C."}, "[10]": {"assay": "Kinetics of lactone ring opening in PBS containing HSA (HPLC)", "conditions": "HSA (PBS containing 30 mg/ml HSA)"}, "[11]": {"assay": "Kinetics of lactone ring opening in whole human blood (HPLC)", "conditions": "Whole Blood, physiological temperature"}, "[12]": {"conditions": "earlier studies; cited from earlier work"}},
  "note": "Read-outs that look alike come from different tables or passages of the source.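 For lactone level at equilibrium in whole blood, fold greater than 9-aminocamptothecin in this document: hydrolytic opening of the camptothecin lactone ring followed over time by quantitative C18 reversed-phase HPLC in human whole blood at physiological temperature.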",
  "data": [
    {"smiles": "CCC1(O)C(=O)OCc2c1cc1n(c2=O)Cc2c-1nc1ccccc1c2[Si](C)(C)C(C)(C)C", "note": "(stereo in doubt) [Example 2, (20S)-7-tert-butyldimethylsilylcamptothecin]", "values": [
      {"measurement": "IC50", "setting": "[1]", "value": 0.12, "unit": "nM"},
      {"measurement": "half-life", "setting": "[2]; blood", "value": 71.9, "unit": "min"},
      {"measurement": "% Lactone at Equilibrium", "setting": "[3]; human", "value": "59.4 +/− 0.0%"},
      {"measurement": "half-life", "setting": "[3]; human", "value": 79.4, "unit": "min"},
      {"measurement": "IC50", "setting": "[4]", "value": 2.9, "unit": "nM"},
      {"measurement": "% Lactone at Equilibrium", "setting": "[5]", "value": "1.0 +/− 0.1%"},
      {"measurement": "% Lactone at Equilibrium", "setting": "[6]", "value": "12.2 +/− 0.4%"},
      {"measurement": "half-life", "setting": "[6]; buffer", "value": 27.9, "unit": "min"},
      {"measurement": "IC50", "setting": "[7]", "value": 1.2, "unit": "nM"}
    ]},
    {"smiles": "CCC1(O)C(=O)OCc2c1cc1n(c2=O)Cc2c-1nc1ccc(N)cc1c2[Si](C)(C)C", "note": "(stereo in doubt) [Example 8, (20S)-10-amino-7-trimethylsilylcamptothecin]", "values": [
      {"measurement": "IC50", "setting": "[1]", "value": 0.52, "unit": "nM"},
      {"measurement": "KDMPC overall association constant", "setting": "[8]", "value": 820, "unit": "M⁻¹"},
      {"measurement": "half-life", "setting": "[2]; blood", "value": 37.6, "unit": "min"},
      {"measurement": "KDMPG overall association constant", "setting": "[9]", "value": 360, "unit": "M⁻¹"},
      {"measurement": "IC50", "setting": "[4]", "value": 0.72, "unit": "nM"},
      {"measurement": "% Lactone at Equilibrium", "setting": "[5]", "value": "12.3 +/− 0.0%"},
      {"measurement": "% Lactone at Equilibrium", "setting": "[6]", "value": "10.5 +/− 0.3%"},
      {"measurement": "half-life", "setting": "[6]; buffer", "value": 31.3, "unit": "min"},
      {"measurement": "IC50", "setting": "[7]", "value": 5.7, "unit": "nM"}
    ]},
    {"smiles": "CC[C@@]1(O)C(=O)OCc2c1cc1n(c2=O)Cc2c-1nc1ccccc1c2[Si](C)(C)CCCN(C)C.Cl", "note": "[DB-104, 7-(3-dimethylaminopropyldimethylsilyl) camptothecin hydrochloride salt]", "values": [
      {"measurement": "t1/2", "setting": "[5]", "value": "77.2 ± 1.8", "unit": "min"},
      {"measurement": "% Lactone at Equilibrium", "setting": "[6]", "value": "7.5 +/− 0.2%"},
      {"measurement": "t1/2", "setting": "[6]; buffer", "value": "24.1 ± 1.0", "unit": "min"}
    ]},
    {"smiles": "CC[C@@]1(O)C(=O)OCc2c1cc1n(c2=O)Cc2c-1nc1ccc(O)cc1c2[Si](C)(C)CCCCl", "note": "[DB-158, (20S)-10-hydroxy-7-(3-chloropropyldimethylsilyl) camptothecin]", "values": [
      {"measurement": "% Lactone at Equilibrium", "setting": "[10]", "value": "17.2 +/− 0.7%"},
      {"measurement": "t1/2", "setting": "[10]", "value": "48.0 ± 0.9", "unit": "min"},
      {"measurement": "% Lactone at Equilibrium", "setting": "[3]; RBC", "value": "50.2 +/− 1.7%"},
      {"measurement": "t1/2", "setting": "[3]; RBC", "value": "67.7 ± 8.5", "unit": "min"},
      {"measurement": "% Lactone at Equilibrium", "setting": "[6]", "value": "11.3 +/− 1.8%"},
      {"measurement": "% Lactone at Equilibrium", "setting": "[11]", "value": "17.8 +/− 2.0%"},
      {"measurement": "t1/2", "setting": "[11]", "value": "65.3 ± 9.0", "unit": "min"}
    ]},
    {"smiles": "CCc1c2c(nc3ccc(OC(=O)N4CCC(N5CCCCC5)CC4)cc13)-c1cc3c(c(=O)n1C2)COC(=O)[C@]3(O)CC", "note": "[IRT, irinotecan, reference compound]", "values": [
      {"measurement": "IC50", "setting": "[1]", "value": 270, "unit": "nM"},
      {"measurement": "IC50", "setting": "[4]", "value": 372, "unit": "nM"},
      {"measurement": "lactone level at equilibrium in whole blood, fold greater than 9-aminocamptothecin", "setting": "[5]", "value": "approximately 40 fold"},
      {"measurement": "IC50", "setting": "[7]", "value": 487, "unit": "nM"},
      {"measurement": "% lactone at equilibrium in whole human blood", "setting": "[12]", "value": 21.0, "unit": "%"},
      {"measurement": "% Lactone at Equilibrium", "setting": "[11]", "value": 21.0, "unit": "%"}
    ]},
    {"smiles": "CCc1c2c(nc3ccc(O)cc13)-c1cc3c(c(=O)n1C2)COC(=O)[C@]3(O)CC", "note": "[SN-38, 10-hydroxy-7-ethylcamptothecin, reference compound]", "values": [
      {"measurement": "KDMPC overall association constant", "setting": "[8]", "value": 260, "unit": "M⁻¹"},
      {"measurement": "KDMPG overall association constant", "setting": "[9]", "value": 160, "unit": "M⁻¹"},
      {"measurement": "t1/2", "setting": "[5]", "value": "50.7 ± 1.4", "unit": "min"},
      {"measurement": "% lactone at equilibrium in whole human blood", "setting": "[12]", "value": 19.5, "unit": "%"},
      {"measurement": "% Lactone at Equilibrium", "setting": "[11]", "value": 19.5, "unit": "%"},
      {"measurement": "% Lactone at Equilibrium", "setting": "[11]; listed as SN 38", "value": "20.2 +/− 1.9%"}
    ]},
    {"smiles": "CC[C@@]1(O)C(=O)OCc2c1cc1n(c2=O)Cc2cc3c(CN(C)C)c(O)ccc3nc2-1", "note": "[Topotecan, topotecan, reference compound]", "values": [
      {"measurement": "% Lactone at Equilibrium", "setting": "[10]", "value": "7.06 +/− 0.3%"},
      {"measurement": "K value for DMPC liposomes, times less than that for camptothecin", "setting": "[8]; relative to camptothecin", "value": "~10", "unit": "times"},
      {"measurement": "half-life", "setting": "[2]; whole blood", "value": 30.9, "unit": "min"},
      {"measurement": "lactone level at equilibrium in whole blood, fold greater than 9-aminocamptothecin", "setting": "[5]", "value": 20, "unit": "fold"},
      {"measurement": "% lactone at equilibrium in whole human blood", "setting": "[12]", "value": 11.9, "unit": "%"},
      {"measurement": "% Lactone at Equilibrium", "setting": "[11]", "value": "8.61 +/− 0.4%"},
      {"measurement": "% Lactone at Equilibrium", "setting": "[11]; listed as topotecan", "value": 8.6, "unit": "%"}
    ]}
  ]
}
